Source: PubChem BioAssay AID330 (DTP/NCI, 2004)
Inconclusive results and toxic doses are left out. The calls were made as follows: active = survival T/C of 150% or more; inactive = T/C below 125% in these data.

Tested on: P388 leukemia ip, CD2F1 mice, survival T/C
Assay: NCI In Vivo Anticancer Drug Screen. Data for tumor model P388 Leukemia (intraperitoneal) in CD2F1 (CDF1) mice
Conditions: endpoint: median survival time, higher = longer survival
How it was run: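 Mice carrying the transplanted tumor received test compound or vehicle. Survival was recorded in each group, and the value is the treated-group measurement divided by that of the vehicle-treated control group.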

[1] = dose: 50.0 mg/kg/injection, schedule: Q01DX005 (ip), vehicle: Klucel (hydroxypropylcellulose) (HPC)
[2] = dose: 100.0 mg/kg/injection, schedule: Q01DX005 (ip), vehicle: Klucel (hydroxypropylcellulose) (HPC)
[3] = dose: 200.0 mg/kg/injection, schedule: Q01DX005 (ip), vehicle: Klucel (hydroxypropylcellulose) (HPC)
[4] = dose: 25.0 mg/kg/injection, schedule: Q01DX005 (ip), vehicle: saline with Tween-80
[5] = dose: 50.0 mg/kg/injection, schedule: Q01DX005 (ip), vehicle: saline with Tween-80
[6] = dose: 100.0 mg/kg/injection, schedule: Q01DX005 (ip), vehicle: saline with Tween-80
[7] = dose: 12.5 mg/kg/injection, schedule: Q01DX005 (ip), vehicle: saline with Tween-80
[8] = dose: 25.0 mg/kg/injection, schedule: Q01DX005 (ip), vehicle: Klucel (hydroxypropylcellulose) (HPC)
[9] = dose: 200.0 mg/kg/injection, schedule: Q01DX005 (ip), vehicle: saline with Tween-80
[10] = dose: 15.0 mg/kg/injection, schedule: Q01DX005 (ip), vehicle: saline with Tween-80
[11] = dose: 30.0 mg/kg/injection, schedule: Q01DX005 (ip), vehicle: saline with Tween-80
[12] = dose: 60.0 mg/kg/injection, schedule: Q01DX005 (ip), vehicle: saline with Tween-80

Measured: T/C

O=C(O)CNC(=S)C(=S)NCC(=O)O
inactive: [1] 101 % of control | [2] 97 % of control | [3] 90 % of control

ClC1=NC(Cl)C(Cl)=N/C1=N\c1ncn[nH]1 (stereo unspecified)
inactive: dose: 4.4 mg/kg/injection, schedule: Q04DX003 (ip), vehicle: saline with Tween-80 100 % of control | dose: 6.6 mg/kg/injection, schedule: Q04DX003 (ip), vehicle: saline with Tween-80 100 % of control | dose: 10.0 mg/kg/injection, schedule: Q04DX003 (ip), vehicle: saline with Tween-80 90 % of control | dose: 15.0 mg/kg/injection, schedule: Q04DX003 (ip), vehicle: saline with Tween-80 104 % of control

CCNC(=O)OCc1cnc(C)c(O)c1COC(=O)NCC
inactive: [4] 102 % of control | [5] 100 % of control | [6] 99 % of control

O=C1CN(Cc2ccccc2)CC(=O)N2Cc3ccccc3CN12
inactive: [7] 98 % of control | [4] 105 % of control | [5] 102 % of control

CC1=C(C#N)C(=O)NC(C)C1 (stereo unspecified)
inactive: [8] 108 % of control | [1] 101 % of control | [2] 108 % of control | [6] 98 % of control | [3] 104 % of control | [9] 99 % of control | dose: 400.0 mg/kg/injection, schedule: Q01DX005 (ip), vehicle: saline with Tween-80 102 % of control | dose: 500.0 mg/kg/injection, schedule: Q01DX001 (ip), vehicle: saline with Tween-80 100 % of control | dose: 1000.0 mg/kg/injection, schedule: Q01DX001 (ip), vehicle: saline with Tween-80 99 % of control | dose: 2000.0 mg/kg/injection, schedule: Q01DX001 (ip), vehicle: saline with Tween-80 108 % of control

C[C@@H](O)[C@H](NSc1ccccc1[N+](=O)[O-])C(=O)NCCc1nc(-c2nc(C(=O)NCCCBr)cs2)cs1
inactive: dose: 6.25 mg/kg/injection, schedule: Q01DX005 (ip), vehicle: saline with Tween-80 93 % of control | [7] 95 % of control | [4] 90 % of control | [6] 97 % of control | [9] 86 % of control

CN(C)CCSSCCN(C)C.[Cl][Zn][Cl]
inactive: dose: 6.25 mg/kg/injection, schedule: Q01DX005 (ip), vehicle: Klucel (hydroxypropylcellulose) (HPC) 102 % of control | dose: 12.5 mg/kg/injection, schedule: Q01DX005 (ip), vehicle: Klucel (hydroxypropylcellulose) (HPC) 95 % of control | [8] 97 % of control

CN(C)[C@@H]1C(=O)C(C(N)=O)=C(O)[C@@]2(O)C(=O)C3=C(O)c4c(O)ccc(Cl)c4[C@@](C)(O)[C@H]3C[C@@H]12
inactive: dose: 100.0 mg/kg/injection, schedule: Q04DX003 (ip), vehicle: saline 104 % of control | dose: 200.0 mg/kg/injection, schedule: Q04DX003 (ip), vehicle: saline 113 % of control

COCC/C=C/CCl
inactive: dose: 100.0 mg/kg/injection, schedule: Q04DX003 (ip), vehicle: saline with Tween-80 100 % of control | dose: 200.0 mg/kg/injection, schedule: Q04DX003 (ip), vehicle: saline with Tween-80 100 % of control | dose: 400.0 mg/kg/injection, schedule: Q04DX003 (ip), vehicle: saline with Tween-80 95 % of control

COc1ccc(-c2oc3cc(OC)c(OC)c(O)c3c(=O)c2O)cc1O
inactive: dose: 25.0 mg/kg/injection, schedule: Q04DX002 (ip), vehicle: saline with Tween-80 105 % of control | dose: 50.0 mg/kg/injection, schedule: Q04DX002 (ip), vehicle: saline with Tween-80 110 % of control | dose: 100.0 mg/kg/injection, schedule: Q04DX002 (ip), vehicle: saline with Tween-80 103 % of control | dose: 200.0 mg/kg/injection, schedule: Q04DX002 (ip), vehicle: saline with Tween-80 102 % of control

Cc1cccc(Nc2ncnc3c2c(=O)n(C)c(=O)n3C)c1
inactive: [10] 91 % of control | [11] 94 % of control | [12] 86 % of control

Cc1csnn1
inactive: [10] 105 % of control | [11] 100 % of control | [12] 102 % of control
